Experimental data from US6562837B1, “Use of tetrahydroisoquinoline compounds for the treatment of septicemia” (Korea Institute of Science & Technology, priority 1998, dated 2003).
Read-outs that look alike come from different tables or passages of the source.

Legend:
[1] = tested on: acute thrombosis in the pulmonary artery; experiment: Acute thrombosis (collagen plus epinephrine i.v.) in mice, recovery from paralysis; assay type: in vivo
Protocol: A mixture of collagen (300:μg/kg) plus epinephrine (30:μg/kg) was injected into the tail vein of mice (ICR; […], the same mice were employed in all of the following experiments) to induce massive, acute thrombosis in the pulmonary artery. Thus, an acute thrombosis model, in which mice were paralyzed in 1-3 min after the injection and most of them died within 15 min was prepared. To investigate the effect of the compounds of Chemical Formulas 1 and 2 on the acute thrombosis, either of the compounds was orally administered to mice for 1 or 3 days. The intravenous injection of the mixture of collagen and epinephrine was conducted 1 hour after the final oral administration. An observation was taken to examine the mortality change and the recovery from the paralysis and the results are given in Tables 4 and 5, below.
Most of the mice were paralyzed within 1 min after the injection, following dilation of the pupils, difficult breathing, and convulsions. Most of the mice either died within 5 min or were subjected to paralysis for 15 min or longer. Only a few of them recovered from the paralysis.

LPS-caused death = experiment: Preventive effect on LPS-caused death in mice; assay type: in vivo; conditions: for survival rate until 48 hours: 10 mg/kg i.p. 30 min before LPS (20 mg/kg i.p.), LPS only about 20%; for deaths up to 30 hours after the LPS injection: 20 mg/kg i.p. 30 min before LPS (20 mg/kg i.p.)
Protocol: When a large quantity of LPS is injected into animals, various diseases, such as DIC, are generated and they are dead of septic shock in a short period of time. In this experiment, LPS (20 mg/kg) was intraperitoneally injected into mice and the number of mice which were alive for 48 hours after the injection, was counted. Also, an examination was made of the influence of test drugs on the survival ratio.
LPS (20 mg/kg) was administered to mice by injection (i.p.), after which the mice alive were countered every 6 hours for 48 hours. 30 min before LPS injection, test drugs were intraperitoneally injected into the mice to examine the preventive effect on the LPS-caused death.

[2] = tested on: thrombus formation in AVS tube; experiment: Thrombus formation in arterio-venous shunt (AVS) tube in rats; assay type: in vivo; conditions: for Weight (mg) of thrombus: control 42.67 ± 5.381
Protocol: An AVS tube was prepared. For this, a scalp vein set was cut into a length of 18 cm, and each end was connected to a 18G syringe needle while a 100% cotton thread 5 cm long was fixed to the center of the tube. Rats were anesthetized with ketamine (250 mg/kg) by injection (i.m.) and underwent laparotomy. An AVS tube filled with saline was installed between the abdominal aorta and the renal vein in such a way that its one syringe needle was inserted in the abdominal aorta and the other syringe needle was inserted in the renal vein. Blood was allowed to pass through the AVS tube so as to form thrombus on the cotton thread. After circulation of blood through the AVS tube for 15 min, the thread was taken out from the AVS tube. The weight of the thrombus formed on the cotton thread was determined by weighing the thread.

human platelets = experiment: Inhibitory effect on platelet aggregation in human platelet rich plasma; assay type: cell-based
Protocol: For experiment, a blood platelet concentrate which was purchased from the Blood Bank of the Seoul National University Hospital, Korea, was measured for the number of platelets with the aid of a platelet analyzer (PLT-4, Texas Instruments), and diluted with phosphate buffered saline (hereinafter referred to as “PBS”) to give platelet rich plasma (hereinafter referred to as “PRP”) which ranged, in platelet number, from 300×10^6 to 400×10^6/ml. After being incubated at 37° C. for 3 min, PRP was added with ADP, collagen or epinephrine to induce platelet aggregation. The reduction in turbidity of PRP was observed and the degree of aggregation was monitored using a platelet aggregometer, such as that manufactured by Chrono-Log Corp. U.S.A., identified as “Model 500VS”.
The inhibitory activities of sample compounds against the platelet aggregation were evaluated as the % inhibition calculated according to the following equation: […]
A: aggregation degree of platelets obtained when adding a platelet aggregation inducer alone;
B: aggregation degree of platelets obtained when adding a combination of a platelet aggregation inducer and a sample.
Obtained using human platelets, the inhibitory effects of the compounds of Chemical Formulas 1 and 2 on platelet aggregation are given, along with the results from the control higenamine, in Table 1, below.

[3] = 10 mg/kg orally once for three successive days, recovered within 15 min
[4] = 10 mg/kg orally once for three successive days, recovered within 15 min, control 20%
[5] = 50 mg/kg orally once for three successive days, recovered within 15 min
[6] = 50 mg/kg orally once for three successive days, recovered within 15 min, control 20%
[7] = 50 mg/kg orally once, recovered from thrombotic paralysis within 15 min
[8] = 50 mg/kg orally once, recovered within 15 min, control 17%
[9] = 100 mg/kg orally once, recovered from thrombotic paralysis within 15 min
[10] = 100 mg/kg orally once, recovered within 15 min, control 17%
[11] = 10 mg/kg orally once a day for successive three days
[12] = 25 mg/kg orally once, first series, control 33.61 mg
[13] = 25 mg/kg orally once, first series, control 33.61 ± 7.620
[14] = 50 mg/kg orally once a day for successive three days
[15] = 50 mg/kg orally once, second series, control 39.54 mg
[16] = 50 mg/kg orally once, second series, control 39.54 ± 5.625
[17] = human PRP, inducer collagen 2-4 × 10^−6 g/ml, read-out: IC50 (M), collagen-induced platelet aggregation
[18] = human PRP, inducer epinephrine 2 × 10^−6 M, read-out: IC50 (M), epinephrine-induced platelet aggregation
[19] = Homo sapiens, read-out: IC50 (M), ADP-induced platelet aggregation

| Compound | Mice Recovered, Number [1, 3] | Mice Recovered, % [1, 4] | Mice Recovered, Number [1, 5] | Mice Recovered, % [1, 6] | Mice Recovered, Number [1, 7] | Mice Recovered, % [1, 8] | Mice Recovered, Number [1, 9] | Mice Recovered, % [1, 10] | survival rate until 48 hours (LPS-caused death) | % Inhibition of thrombus formation [2, 11] | Weight (mg) of thrombus [2, 11] | % Inhibition of thrombus formation [2, 12] | Weights (mg) of thrombus [2, 13] | % Inhibition of thrombus formation [2, 14] | Weight (mg) of thrombus [2, 14] | % Inhibition of thrombus formation [2, 15] | Weights (mg) of thrombus [2, 16] | IC50 (human platelets; [17]) | IC50 (human platelets; [18]) | deaths up to 30 hours after the LPS injection (LPS-caused death) | also measured |
| --- | --- | --- | --- | --- | --- | --- | --- | --- | --- | --- | --- | --- | --- | --- | --- | --- | --- | --- | --- | --- | --- |
| Oc1ccc(CC2NCCc3cc(O)c(O)cc32)cc1 (centres unmarked) [Higenamine, reference compound] | 2 | 17% | 5 | 45% | 11 | 37% | 13 | 48% | 80% | 13.9% | 36.76 ± 7.964 mg | 31.6% | 22.98 ± 11.271 mg | 18.7% | 34.68 ± 8.513 mg | 25.1% | 29.61 ± 5.059 mg | 7e-05 M | 1.9e-05 M |  | IC50 (human platelets; human PRP, inducer ADP 1 × 10^−3 M, read-out: IC50 (M), ADP-induced platelet aggregation): > 0.001 M |
| Oc1cc2c(cc1O)C(Cc1ccc3ccccc3c1)NCC2 (stereo not drawn) [Compound 2, 1-β-naphthylmethyl-6,7-dihydroxy-1,2,3,4-tetrahydroisoquinoline] | 7 | 70% | 7 | 64% | 14 | 50% | 12 | 50% | 80% | 24.4% | 32.24 ± 4.836 mg | 32.5% | 22.68 ± 10.127 mg | 29.3% | 30.18 ± 6.571 mg | 27.7% | 28.58 ± 4.234 mg | 9.6e-06 M | 6e-06 M | no mice were dead until 30 hours | IC50 (human platelets; [19]): 0.00086 M |
| Oc1cc2c(cc1O)C(Cc1cccc3ccccc13)NCC2 (stereo not drawn) [Compound 1, 1-α-naphthylmethyl-6,7-dihydroxy-1,2,3,4-tetrahydroisoquinoline] | 3 | 30% | 5 | 42% | 8 | 47% | 9 | 45% | 60% | 25.5% | 31.78 ± 8.385 mg | 39.7% | 20.27 ± 5.366 mg | 28.0% | 30.72 ± 6.334 mg | 24.8% | 29.72 ± 5.975 mg | 9.2e-05 M | 3.4e-06 M | no mice were dead until 30 hours | IC50 (human platelets; [19]): 0.00073 M |
